Measured values reported in patent publication US8569578B1, “Generating transgenic potatoes with novel resistance to potato cyst nematodes by silencing nematode parasitism genes of CLE -1 and CLE-4s” (The United States of America, as represented by the …, priority 2009, dated 2013).
“Also recorded” adds a separate entry of the source.

Key:
Type in all cases: in vivo
[1] = system: Arabidopsis (Columbia-0) root apical meristem; assay: microscopic examination of root apical meristem of peptide treated Arabidopsis roots; details: Arabidopsis primary roots 8 days after peptide treatment
Text: (§1) To examine root meristems, primary root tips were excised from peptide treated Arabidopsis seedlings or from transgenic potato hairy roots and immediately mounted in water onto a glass slide. Roots were examined under an Olympus BX-50 microscope equipped with Nomarski optics and images were captured using a QImaging Retiga EXi digital CCD camera (QImaging, Surrey, BC, Canada). The root apical meristem (RAM) regions of individual primary roots that covered the distance from the position around the quiescent center to the position where elongated root cells immediately follow cytoplasm-dense meristematic cells were measured microscopically. The collected data were analyzed using the MetaMorph imaging analysis software (Universal Imaging Corporation, Downingtown, Pa., U.S.A.)

[2] = system: Arabidopsis (Columbia-0) roots; assay: in vitro root assay with synthetic CLE peptides on Arabidopsis roots; details: 10 μM peptide in assay medium, compared with no peptide or Ag-16p
Text: (§2) Mounting evidence supports that the conserved CLE motif represents the major functional domain of plant CLE proteins. Gr-CLE genes encode four different 12-aa CLE motifs (FIG. 1A). To examine the functional sufficiency of these nematode CLE motifs, we conducted in vitro root assays (Fiers et al. 2005) using synthetic dodecapeptides (GrCLE1-1-12p, GrCLE4-1-12p, GrCLE4-2-12p, and GrCLE4-3-12p) corresponding to the four CLE motifs of Gr-CLE proteins. A 16-aa peptide (Ag-16p) (Fiers et al. 2005) corresponding to the C-terminus of AGAMOUS that has no similarity with plant CLE motifs and a 12-aa CLV3 peptide (CLV3-12p) were used as negative and positive controls, respectively. In addition, several peptides, including a mutated GrCLE1-1 dodecapeptide (GrCLE1-1m-12p, with a Gly-to-Ala conversion as in clv3-1 and clv3-5 mutants), a 14-aa GrCLE1-1 peptide (GrCLE1-1-14p, with one additional N-terminal and one additional C-terminal residue compared to Gr-CLE1-1-12p), and three 13-aa peptides of GrCLE4-1-13p, GrCLE4-2-13p, and GrCLE4-3-13p (all contained an extra N-terminal lysine residue compared to the corresponding dodecapeptides), were synthesized and used in the in vitro root assays.
(§3) Peptides with a purity of >70% were synthesized (Sigma-Aldrich Corp., St. Louis, Mo., U.S.A) and dissolved in filter-sterilized 50 mM sodium phosphate buffer. Three Gr-CLE-1 related peptides were synthesized: GrCLE1-1-12p (12 aa, RVIPGGPDPLHN; SEQ ID NO: 12), GrCLE1-1m-12p (12 aa, RVIPGAPDPLHN; SEQ ID NO: 13, with a G-to-A conversion at position 6), and GrCLE1-1-14p (14 aa, KRVIPGGPDPLHNR; SEQ ID NO: 14). Six Gr-CLE-4 related peptides were synthesized: GrCLE4-1-12p (12 aa, RVAGAGPDPIHH; SEQ ID NO: 15), GrCLE4-1-13p (13 aa, KRVAGAGPDPIHH; SEQ ID NO: 16), GrCLE4-2-12p (12 aa, RAVPAGPDPKHH; SEQ ID NO: 17), GrCLE4-2-13p (13 aa, KRAVPAGPDPKHH; SEQ ID NO: 18), GrCLE4-3-12p (12 aa, RGAPAGPDP IHH; SEQ ID NO: 19), and GrCLE4-3-13p (13 aa, KRGAPAGPDPIHH; SEQ ID NO: 20). Positive and negative control peptides included CLV3-12p (12 aa, RTVPSGPDPLHH; SEQ ID NO: 21) and Ag-16p (16 aa, APNNHHYSSAGRQDQT; SEQ ID NO: 22) (Fiers et al., 2005).
(§4) For peptide treatments, seeds of wild-type Arabidopsis (Columbia-0) and potato, nonhost and host of G. rostochiensis, respectively, were surface-sterilized and plated on square plates (8-12 seeds per plate) containing the assay medium (Fiers et al. 2005, supra) with 10 μM of each peptide. Assay plates were placed vertically in a growth chamber and cultured at 23° C. for 16 h of light and 8 h of dark. The root length was measured from the base of the hypocotyl to the tip of the primary root at several time points after plating. Two independent experiments were conducted.

potato roots = assay: in vitro root assay with synthetic CLE peptides on potato roots; details: 10 μM peptide in assay medium, compared with no peptide or Ag-16p
Text: as §2, §3, §4

potato hairy roots = assay: overexpression of Gr-CLE genes in potato hairy roots; details: measured at 4, 6, 8 and 10 days after dissecting; compared with vector control
Text: as §1
A. rhizogenes strain 15834 was transformed with individual transgene constructs of interest and used for the generation of potato hairy roots as described previously (Wang et al. 2007. Mol. Plant Pathol. 8:423-436) with some modifications. Potato stem pieces from tissue cultures were incubated with the transformed A. rhizogenes cell suspension for 10 mins, then transferred onto the callus induction medium containing 1×MS salts (Sigma-Aldrich), 26.7 μM Glycine, 4 μM Nicotinic Acid, 2.4 μM Pyridoxine HCL (Sigma-Aldrich), 1.2 μM Thiamine HCL (Sigma-Aldrich), 0.5 μM Folic Acid, 0.2 μM d-biotin (Sigma-Aldrich), 0.01% Myo-inositol (Acros, Morris Plains, N.J., U.S.A.), 3% sucrose, 0.001% 6-BAP (Sigma-Aldrich), 0.002% NAA (Sigma-Aldrich), and 1% agar and cultivated for four days at 24° C. without light. The infected stem pieces were then cultured on the propagation medium containing 1×MS salts, 1.2 mM NaH2PO4, 0.01% Myo-inositol, 0.1% Thiamine HCl, 3% sucrose, 1% agar, 50 μg/mL of kanamycin, and 238 μg/mL of timentin (GlaxoSmithKline). Timentin was used to inhibit the growth of A. rhizogenes 15834 and kanamycin was added to select for transformed roots. Approximately 12-15 days after root emergence, 1 cm-long root tips were dissected and cultured on vertical plates containing the propagation medium with 119 μg/mL of timentin and the root growth rate was measured at different time points.

[3] = system: Arabidopsis clv3-2 mutant plants; assay: complementation of clv3-2 mutant by Gr-CLE genes under CLV3 promoter; details: gene under control of CLV3 promoter in clv3-2
Text: Gr-CLE proteins can completely or partially replace CLV3 activity within meristems. For the complementation study, Gr-CLE genes were subcloned into pBU14 under the control of the CLV3 promoter (Brand et al. 2002. Plant Physiol. 129:565-575). To generate the PCLV3:Gr-CLE-1 construct, primer pair of CLE1-spF and CLE1-TGAxbaR was used. To generate PCLV3:Gr-CLE-4-B and PCLV3:Gr-CLE-4-C constructs, primer pair of CLE4B1-spF and 4B1-TGAxbaR was used. Each amplified PCR product was cloned into pBU14 at BamHI and XbaI sites. Arabidopsis clv3-2 mutant plants were transformed with A. tumefaciens GV3101 harboring each of the above constructs.
All transformants were selected on ½×MS medium containing 50 μg/mL of kanamycin (Sigma-Aldrich) (for the pMD1 vector) or 30 μg/mL of glufosinate ammonium (Fisher, Pittsburgh, Pa., U.S.A.) (for the pBU14 vector) and transgenic Arabidopsis plants were then cultivated at 24° C. for 16 h of light and 8 h of dark in a growth room. For measuring the root growth rate, transgenic plants expressing individual Gr-CLE genes or the empty vector were first selected on kanamycin containing medium for five days, then transferred to ½×MS plates and cultured vertically at 24° C. for 16 h of light and 8 h of dark in a growth chamber (Percival, Perry, Iowa, U.S.A.).
Gr-CLE-1, Gr-CLE-4-B, and Gr-CLE-4-C were the most representative Gr-CLE genes identified. To determine if these genes could replace CLV3 activity in the shoot and floral meristems, the full-length sequences of these three genes were cloned under the control of the CLV3 promoter and introduced into Arabidopsis clv3-2 mutant plants. clv mutants have enlarged shoot and floral meristems that lead to shoot fasciation and formation of extra floral organs including an increase in carpel number (Clark et al. 1993, 1995; Kayes and Clark 1998). For example, flowers of a clv3-2 mutant usually have six to seven carpels in the fourth whorl (Clark et al. 1995), whereas wild-type flowers have only two carpels in the fourth whole. Carpel number is a sensitive measurement for meristem size (Clark et al. 1993; Ni and Clark 2006). Multiple independent transgenic lines for each transgene were obtained and analyzed (Table 2).

Molecule	root meristem consumption (size of root apical meristem) [1]	suppression of root growth (length of main root) [2]	suppression of root growth (length of main root) (potato roots)	suppression of root growth (length of main root) ([2]; listed as GrCLE1-1)	length of primary roots of transgenic potato hairy root lines (potato hairy roots)	average number of carpels in flowers and siliques [3]	rescue of clv3-2 meristem defects [3]
RTVPSGPDPLHH (listed as Globodera rostochiensis) [CLV3-12p, 12-aa CLV3 peptide, positive control, reference compound]	showed a phenotype of root meristem consumption	severely suppressed root growth	severely suppressed root growth	–	–	–	–
RVIPGGPDPLHN (listed as Globodera rostochiensis) [GrCLE1-1-12p, synthetic 12 aa dodecapeptide of the GrCLE1-1 CLE motif]	more severe; also recorded: significantly less	suppressed root growth; also recorded: comparable level of suppression as CLV3-12p; also recorded: significantly shorter	suppressed root growth; also recorded: comparable level of suppression as CLV3-12p; also recorded: significantly shorter	higher degree of root suppression	–	–	–
Gr-CLE-4-C: G. rostochiensis CLE gene of class Gr-CLE-4 with a single CLE motif, cDNA SEQ ID NO: 5 (nucleic acid, listed as Globodera rostochiensis) DNA: ATCATAATTTCCAAAATCCCAATAAAAGCTTCCTCAATAAAGTAAATATGGCCACGAACACAATGCTTTGCCTGTTTGTTATAAGCGTTGTTCTCGCTCTCGCATTTGCTACGAATAAAAAGGGTGATGAAGAACCGGAGAACCATTCGACCGGCATTTTTGGAAAGGTCGGACGAGTTGTGACCGTGGCACTTGCGATGTCGTCTCGTCTGGGAGGGGCTGACGCAACCCGAGGAGGTGGAGCTGTATATGGAGGAAACTTGAAATCCAATCAATTGCCAAACAACAATTGGATGGCGCCACCTCCTCCAATGGCAATAAGAAGTGCCAAAGTCTATGATTCGAAACATTCTCCTGCTGAATATCTTAAAAAATTTGCTCAAGACTTTCGCCGAAAAACCGGCATGCACTCCCAGCGGCATCACGAAGAAACAACACTGGAACAGGAGAAGCGTGTAGCGGGAGCTGGTCCCGACCCAATACATCACTGATGCTCTTATTCACAATGCTAAAATATCTGTAGACTATAGATAAATTGCTAGCAACAG	–	–	–	–	short root phenotype	three to four	partial rescue
